Source: patent US20220324835A1 (Nurix Therapeutics, Inc., priority 2018, published 2022)
Structures can show the parent of a compound that is named as a salt.

Tests used:
[1] = system: T-cell; assay: IL-2 secretion from T-cells co-stimulated with anti-CD3 and anti-CD28 antibody (Biological Example 2); assay type: cell-based, human; settings: Homo sapiens, T-cell, fold change over baseline, primary human total T-cells, read-out: IL-2 secretion Anti-CD3/Anti-CD28 stimulation; for fold induction at 0.3 µM: 0.3 μM Cbl-b inhibitor; for fold induction at 1 µM: 1 μM Cbl-b inhibitor; for fold induction at 4 µM: 4 μM Cbl-b inhibitor
Outline: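 No assay protocol given; T-cells stimulated with anti-CD3 alone or anti-CD3 plus anti-CD28, with or without Cbl-b inhibitor. Activation read as IL-2 secretion or CD25 surface staining, expressed as fold over baseline from uninhibited cells […].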

[2] = molecular target: Cbl-b (residues 36-427) (Homo sapiens, UniProt Q13191); assay: Cbl-b binding assay (SPR, Biacore T200); settings: 20° C., 1:1 binding model
Outline: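 Affinities derived from global 1:1 steady-state or kinetic fits of double-referenced, solvent-corrected SPR data, 20 °C, NeutrAvidin-capture chip. Compound series (top 100 or 50 μM, 8–10 points) injected 50 s, 90–180 s dissociation. Asterisked values used 50 mM instead of 100 mM NaCl and 30 nM Src kinase.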

Sequence of Cbl-b (residues 36-427) (Q13191 36-427): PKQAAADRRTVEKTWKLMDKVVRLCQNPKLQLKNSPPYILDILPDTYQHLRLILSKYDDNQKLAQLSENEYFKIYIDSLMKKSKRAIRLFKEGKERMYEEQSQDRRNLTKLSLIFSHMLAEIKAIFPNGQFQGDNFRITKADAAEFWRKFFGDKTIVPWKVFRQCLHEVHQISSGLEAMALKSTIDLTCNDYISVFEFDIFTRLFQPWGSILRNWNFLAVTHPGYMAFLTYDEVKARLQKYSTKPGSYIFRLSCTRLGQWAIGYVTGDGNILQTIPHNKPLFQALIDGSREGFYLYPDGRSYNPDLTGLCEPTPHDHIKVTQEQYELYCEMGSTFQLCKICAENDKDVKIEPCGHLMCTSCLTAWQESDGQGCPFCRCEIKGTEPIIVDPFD

Row | SMILES | fold induction at 0.3 µM [1] | fold induction at 1 µM [1] | fold induction at 4 µM [1] | Kd [2]
1 | C[C@H](Sc1nncn1C)c1cccc(NC(=O)c2ccc(CO)c(C3CC3)n2)c1 [Compound 89, 6-cyclopropyl-5-(hydroxymethyl)-N-[3-[(1S)-1-[(4-methyl-1,2,4-triazol-3-yl)sulfanyl]ethyl]phenyl]pyridine-2-carboxamide] | 1.01 to 2.5 | 2.51 to 5 | 5 to 7.5 | 100 to 300 nM
2 | C[C@H](Sc1nncn1C)c1cccc(NC(=O)c2ccc(C#N)c(C3CC3)n2)c1 [Compound 92, 5-cyano-6-cyclopropyl-N-[3-[(1S)-1-[(4-methyl-1,2,4-triazol-3-yl)sulfanyl]ethyl]phenyl]pyridine-2-carboxamide] | 1.01 to 2.5 | 2.51 to 5 | 5 to 7.5 | 100 to 300 nM
3 | C[C@H](Cc1nncn1C)c1cccc(N2Cc3c(cc(C(=O)N4CC[C@H](O)C4)cc3C3CC3)C2=O)c1 [Compound 277, 4-cyclopropyl-6-((S)-3-hydroxypyrrolidine-1-carbonyl)-2-(3-((R)-1-(4-methyl-4H-1,2,4-triazol-3-yl)propan-2-yl)phenyl)isoindolin-1-one] | 1.01 to 2.5 | 2.51 to 5 | 2.51 to 5 | 100 to 300 nM
4 | C[C@H](Cc1nncn1C)c1cccc(NC(=O)c2cc(O[C@@H]3CC[C@@H](O)C3)ccn2)c1 (relative stereo) [Compound 205, trans-4-(3-hydroxycyclopentyloxy)-N-(3-((R)-1-(4-methyl-4H-1,2,4-triazol-3-yl)propan-2-yl)phenyl)picolinamide] | 2.51 to 5 | 2.51 to 5 | 5 to 7.5 | 100 to 300 nM
5 | C[C@H](Cc1nncn1C)c1cccc(NC(=O)c2cc(C(=O)N3CC[C@H](O)C3)cc(C(F)(F)F)n2)c1 [Compound 220, 4-((S)-3-hydroxypyrrolidine-1-carbonyl)-N-(3-((R)-1-(4-methyl-4H-1,2,4-triazol-3-yl)propan-2-yl)phenyl)-6-(trifluoromethyl)picolinamide] | 2.51 to 5 | > 7.5 | > 7.5 | < 100 nM
6 | C[C@H](Sc1nncn1C)c1cccc(NC(=O)c2cc(C3CC3)cc(C(F)(F)F)n2)c1 [Compound 67, (S)-4-cyclopropyl-N-(3-(1-((4-methyl-4H-1,2,4-triazol-3-yl)thio)ethyl)phenyl)-6-(trifluoromethyl)picolinamide] | 1.01 to 2.5 | 1.01 to 2.5 | 2.51 to 5 | 100 to 300 nM
7 | C[C@H](Cc1nncn1C)c1cccc(NC(=O)c2ccnc(C3CC3)n2)c1 [Compound 199, (R)-2-cyclopropyl-N-(3-(1-(4-methyl-4H-1,2,4-triazol-3-yl)propan-2-yl)phenyl)pyrimidine-4-carboxamide] | 2.51 to 5 | 5 to 7.5 | > 7.5 | 100 to 300 nM
8 | C[C@H](Sc1nncn1C)c1cccc(NC(=O)c2cc3cc(OCC(=O)NCCN)ccc3cn2)c1 [Compound 311, 6-[2-(2-aminoethylamino)-2-oxo-ethoxy]-N-[3-[(1S)-1-[(4-methyl-1,2,4-triazol-3-yl)sulfanyl]ethyl]phenyl]isoquinoline-3-carboxamide hydrochloride] | < 1 | < 1 | 1.01 to 2.5 | 100 to 300 nM
9 | C[C@H](Cc1nncn1C)c1cccc(N2Cc3c(cc(C(=O)N4C[C@@H](O)C[C@H]4C)cc3C(F)(F)F)C2=O)c1 [Compound 275, 6-((2R,4S)-4-hydroxy-2-methylpyrrolidine-1-carbonyl)-2-(3-((R)-1-(4-methyl-4H-1,2,4-triazol-3-yl)propan-2-yl)phenyl)-4-(trifluoromethyl)isoindolin-1-one] | 2.51 to 5 | 5 to 7.5 | > 7.5 | < 100 nM
10 | Cn1cnnc1CC(C)(C)c1cccc(N2Cc3c(cccc3C(F)(F)F)C2=O)c1 [Compound 300, 2-(3-(2-methyl-1-(4-methyl-4H-1,2,4-triazol-3-yl)propan-2-yl)phenyl)-4-(trifluoromethyl)isoindolin-1-one] | 1.01 to 2.5 | 2.51 to 5 | > 7.5 | 100 to 300 nM
11 | C[C@H](Cc1nncn1C)c1cccc(N2Cc3c(cc(C(=O)N4CC[C@H](O)C4)cc3C(F)(F)F)C2=O)c1 [Compound 274, 6-((S)-3-hydroxypyrrolidine-1-carbonyl)-2-(3-((R)-1-(4-methyl-4H-1,2,4-triazol-3-yl)propan-2-yl)phenyl)-4-(trifluoromethyl)isoindolin-1-one] | 1.01 to 2.5 | 2.51 to 5 | > 7.5 | < 100 nM
12 | Cc1cnnn1C[C@@H](C)c1cccc(NC(=O)c2cccc(C(F)(F)F)n2)c1 [Compound 312a, (S)-N-(3-(1-(5-methyl-1H-1,2,3-triazol-1-yl)propan-2-yl)phenyl)-6-(trifluoromethyl)picolinamide] | 1.01 to 2.5 | 1.01 to 2.5 | 2.51 to 5 | 301 to 1000 nM
13 | CCNc1cc([C@H](C)Cc2nncn2C)cc(N2Cc3c(cccc3C(F)(F)F)C2=O)n1 [Compound 360, (R)-2-(6-(ethylamino)-4-(1-(4-methyl-4H-1,2,4-triazol-3-yl)propan-2-yl)pyridin-2-yl)-4-(trifluoromethyl)isoindolin-1-one] | 2.51 to 5 | > 7.5 | > 7.5 | < 100 nM
14 | CC(C)Nc1cc([C@H](C)Cc2nncn2C)cc(N2Cc3c(cccc3C(F)(F)F)C2=O)n1 [Compound 353, 2-{4-[(2R)-1-(4-methyl-4H-1,2,4-triazol-3-yl)propan-2-yl]-6-[(propan-2-yl)amino]pyridin-2-yl}-4-(trifluoromethyl)-2,3-dihydro-1H-isoindol-1-one] | 1.01 to 2.5 | 2.51 to 5 | > 7.5 | < 100 nM
15 | COc1ccc(C(=O)Nc2cccc([C@H](C)Sc3nncn3C)c2)nc1C1CC1 [Compound 93, 6-cyclopropyl-5-methoxy-N-[3-[(1S)-1-[(4-methyl-1,2,4-triazol-3-yl)sulfanyl]ethyl]phenyl]pyridine-2-carboxamide] | 1.01 to 2.5 | 1.01 to 2.5 | 2.51 to 5 | 100 to 300 nM
16 | Cc1ccc(C(=O)Nc2cccc([C@H](C)Sc3nncn3C)c2)nc1C1CC1 [Compound 54, (S)-6-cyclopropyl-5-methyl-N-(3-(1-((4-methyl-4H-1,2,4-triazol-3-yl)thio)ethyl)phenyl)picolinamide] | 1.01 to 2.5 | 2.51 to 5 | > 7.5 | 100 to 300 nM
17 | C[C@H](Cc1nncn1C)c1cccc(N2Cc3c(cc(C(=O)N4CC(O)C4)cc3C(F)(F)F)C2=O)c1 [Compound 276, (R)-6-(3-hydroxyazetidine-1-carbonyl)-2-(3-(1-(4-methyl-4H-1,2,4-triazol-3-yl)propan-2-yl)phenyl)-4-(trifluoromethyl)isoindolin-1-one] | 1.01 to 2.5 | 2.51 to 5 | > 7.5 | 301 to 1000 nM
18 | Cc1cc(C(=O)Nc2cccc([C@H](C)Cc3nocc3C)c2)nc(C2CC2)n1 [Compound 330, (R)-2-cyclopropyl-6-methyl-N-(3-(1-(4-methylisoxazol-3-yl)propan-2-yl)phenyl)pyrimidine-4-carboxamide] | 1.01 to 2.5 | 2.51 to 5 | 5 to 7.5 | 301 to 1000 nM
19 | Cc1cc(C(=O)Nc2cccc([C@H](C)Cc3nncn3C)c2)nc(C(F)(F)F)n1 [Compound 194, (R)-6-methyl-N-(3-(1-(4-methyl-4H-1,2,4-triazol-3-yl)propan-2-yl)phenyl)-2-(trifluoromethyl)pyrimidine-4-carboxamide] | 2.51 to 5 | > 7.5 | > 7.5 | 100 to 300 nM
20 | C[C@H](Sc1nncn1C)c1cccc(NC(=O)c2ccnc(C3CC3)n2)c1 [Compound 76, 2-cyclopropyl-A-[3-[(1S)-1-[(4-methyl-1,2,4-triazol-3-yl)sulfanyl]ethyl]phenyl]pyrimidine-4-carboxamide] | < 1 | 2.51 to 5 | 5 to 7.5 | 100 to 300 nM
21 | Cc1cc(C(=O)Nc2cccc([C@H](C)Sc3nncn3C)c2)nc(C(F)(F)F)c1 [Compound 65, (S)-4-methyl-N-(3-(1-((4-methyl-4H-1,2,4-triazol-3-yl)thio)ethyl)phenyl)-6-(trifluoromethyl)picolinamide] | 1.01 to 2.5 | 1.01 to 2.5 | 2.51 to 5 | 100 to 300 nM
22 | C[C@H](Cc1nncn1C)c1cccc(NC(=O)c2cc(C(C)(C)O)cc(C(F)(F)F)n2)c1 [Compound 320, 4-(2-hydroxypropan-2-yl)-N-[3-[(2R)-1-(4-methyl-4H-1,2,4-triazol-3-yl)propan-2-yl]phenyl]-6-(trifluoromethyl)pyridine-2-carboxamide] | 1.01 to 2.5 | 2.51 to 5 | 5 to 7.5 | 100 to 300 nM
